According to patent publication US20250339531A1, “DUX4 POLYPEPTIDES AND NUCLEIC ACIDS FOR TREATING INFLAMMATORY AND AUTOIMMUNE CONDITIONS” (Fred Hutchinson Cancer Center, priority 2021, published 2025):
“Also recorded” adds a separate entry of the source.

Columns and labels:
[1] = test system: polysome association of mRNAs; assay: Polysome profiling with RNA-seq; format: cell-based, human; settings: DUX4 pulse+IFNG versus IFNG
Experimental: Polysome profiling was performed using three 70% confluent 15 cm plates of MB135iDUX4 myoblasts per treatment condition (n=3). MB135iDUX4 myoblasts were pulsed with or without doxycycline for 4 hours, incubated for 48 hours, supplemented with 50 ng/mL IFNG for 16 hours, and harvested at a terminal time point of 68 hours. To harvest, culture medium was supplemented with 100 μg/mL cycloheximide (CHX; Sigma) and cells were incubated at 37° C. for 10 minutes. Media was aspirated and each 15 cm plate of adherent cells was rinsed with 25 mL ice-cold PBS supplemented with 100 μg/mL cycloheximide, lifted with 0.25% Trypsin-EDTA supplemented with CHX, and resuspended in growth media supplemented with CHX. Cells were pelleted at 300 RCF and washed twice with ice-cold PBS supplemented with CHX. Cell pellets were flash frozen in liquid nitrogen and stored at −80° C. Cells were lysed with Polysome Lysis Buffer (10 mM Tris pH 8, 140 mM NaCl, 7.5 mM MgCl2, 0.25% NP-40, 0.1% Triton X-100, 150 μg/mL CHX, 20 mM DTT, 640U/mL SUPERase-In RNase Inhibitor) and clarified before quantification with the Bio-Rad Protein Assay. 1.5 mg of clarified lysate was loaded onto a 10-50% sucrose gradient prepared in DEPC-treated water with 25 mM Tris pH 7.4, 25 mM NaCl, 5 mM MgCl2, 100 μg/mL heparin, and 2 mM DTT. Gradients were fractionated using a Biocomp Piston Gradient Fractionator. Samples were resuspended in Trizol and Drosophila S2 cells were added as an internal spike-in control. RNA was extracted using the Direct-zol RNA Miniprep Kit (Zymo Research). Relative mRNA abundance for each sample was normalized to Drosophila spike-in to account for differences in RNA extraction efficiency (Taruttis et al., 2017).
Total RNA was isolated using the NucleoSpin RNA kit (Machery-Nagel) or Direct-zol RNA Mini-Prep Kit (Zymo Research) according to manufacturer's instructions. RNA-seq libraries were prepared using the Illumina TruSeq RNA Sample Prep v2 Kit and sequenced using 50 bp paired-end sequencing on the Illumina NextSeq platform by the Fred Hutchinson Cancer Center Genomics Core.

[2] = test system: proteins that co-immunoprecipitated with DUX4-CTD constructs expressed in MB135 myoblasts; assay: LC-MS of proteins co-immunoprecipitated with DUX4-CTD (Table 1) and western validation; format: binding, human; settings: LC-MS of co-IP; western validation with MB135-iDUXB as control; listed as DUX4-CTD
Text: As an unbiased method to identify proteins that interact with the C-terminal region of DUX4, liquid chromatography mass spectroscopy (LC-MS) was used to identify proteins that co-immunoprecipitated with DUX4-CTD constructs expressed in MB135 myoblasts. In the first experiment, MB135iDUX4-CTD cells were used, either untreated, treated with doxycycline alone, or with both doxycycline and IFNG. In the second experiment, MB135iDUX4-CTD and MB135iDUX4mL1dL2 cells were used, both treated with doxycycline and IFNG, compared to these two cell lines untreated and combined as a control. Proteins with a minimum of 2 peptide spectrum matches (PSMs) in at least one sample that were identified in both experiments were assigned to one of ten categories (see Methods) to separate candidate interactors from other categories that might be co-purified because of obligate interactions (e.g., proteasome or ribosome) or might be less likely to be physiologically relevant (e.g., cytoskeletal proteins). Candidate interactors were then ranked based on the total PSMs for that protein across all samples.
Centrifugation at 2500 rcf at 4° C. for 5 min pelleted the nuclei, supernatant was discarded, and nuclei resuspended in 1 mL IP buffer pH 7.4 (25 mM Tris-HCl pH 7.5, 175 mM NaCl, 1 mM EDTA, 0.2% NP-40, 5% glycerol) and incubated for 1 hour at 4° C. with rotation then spun at 21000 rcf for 10 minutes at 4° C. to pellet insoluble debris. Protein concentration was determined using the Pierce BCA Protein Assay Kit (ThermoFisher, 23225). An equivalent amount of protein per sample was pre-cleared with Dynabeads Protein G (Invitrogen) bound to mouse IgG (Abcam #131368) for 1 hour at 4° C. with rotation. FLAG-tagged constructs were then immunoprecipitated with Dynabeads Protein G beads coupled to mouse anti-FLAG M2 mAb (Sigma F3165) for 3 hours at 4° C. with rotation. Beads were washed 3× with 1 mL IP buffer and eluted by adding 2× NuPage LDS Sample Buffer (Thermo Fisher, diluted from 4× with PBS) to the beads and heating for 10 minutes at 70° C.
For LC-MS, anti-FLAG immunoprecipitation was performed with beads cross-linked to the anti-FLAG antibody and the proteins competitively eluted with FLAG peptide. Eluted protein samples were electrophoresed into a NuPage 4-12% Bis-Tris gel, excised, and processed by the Fred Hutchinson Cancer Research Center Proteomics Core. Samples were reduced, alkylated, digested with trypsin, desalted, and run on the Orbitrap Eclipse Tribid Mass Spectrometer (Thermo Fisher). Proteomics data were analyzed using Proteome Discoverer 2.4 against a Uniprot human database that included common contaminants using Sequest HT and Percolator for scoring. […] Proteins that were identified in at least one sample from both independent experiments with at least 2 PSMs in one sample were assigned to one of ten categories: 1, candidates; 2, cytoskeletal associated; 3, cytoskeletal; 4, ribosome/translation associated; 5, proteasome associated; 6, membrane or extracellular; ER, golgi, or vesicle associated; 8, lipid metabolism; 9, chaperones; 10, nuclear import or nuclear membrane associated. The proteins in category 1 were further investigated for interactions with DUX4.

Substance	mRNAs reduced in the high polysome fraction ([1]; log 2FC<−1, p-adj<0.01)	polysome-bound mRNAs significantly upregulated ([1]; log 2FC>1, p-adj<0.01)	genes with decreased polysome association (high/sub ratio) ([1]; |log 2FC>1|, p-adj<0.01)	genes with increased polysome association (high/sub ratio) ([1]; |log 2FC>1|, p-adj<0.01)	polysome association of specific mRNAs ([1]; high-to-sub polysome ratio)	candidate interacting proteins [2]
DUX4: human DUX4 protein SEQ ID NO:3 expressed from doxycycline inducible codon altered transgene SEQ ID NO:2	7765 genes	256	5800 genes	323 genes	TOP mRNAs remain associated with polysomes; also recorded: HLA-A, HLA-B, and HLA-C mRNAs showed reduced polysome association; also recorded: PSMB8, PSMB9, and PSMB10 mRNAs remained associated with polysomes	–
longCTD: 3×FLAG tag and nls in frame with carboxyterminal 271 amino acids of DUX4 (aa154-424), SEQ ID NOS: 8-9	–	–	–	–	–	STAT1 and DDX3X, two key regulators of innate immune signaling, ranked at the top of the list; also recorded: validated the DUX4-CTD interactions with DDX3X, STAT1, PRKDC, YBX1, HNRNPM, PABPC1, NCL, CDK4, and HNRPU
